Test results published in patent publication US20250161243A1, “MEF2 TRANSCRIPTIONAL ACTIVATORS TO TREAT NEUROLOGIC CONDITIONS” (The Scripps Research Institute, priority 2022, published 2025).
Entries after “also recorded” stand apart in the source; their conditions may differ. Where two headings read alike, the source gives them in different places.

Experiments:
[1] = test system: MEF2 transcriptional activity; test: MEF2 transcriptional activity screen (Luciferase-MEF2 reporter in human neural progenitor cells); type: cell-based; settings: for EC50: concentration for half-maximal activity derived from the hill equation model, MEF2 luciferase reporter, read-out: qAC50
[2] = literature references given; cited from earlier work
[3] = test system: MEF2C haploinsufficiency syndrome (MCHS) patient hiPSC-derived cerebrocortical neurons; test: Calcium events (fluo-4AM) in MCHS patient hiPSC-derived cerebrocortical neurons; type: cell-based, human; settings: MCHS neurons against isogenic WT control
Text: FIGS. 6A and 6B. AR-42 decreases hyperelectrical activity in MEF2C haploinsufficiency syndrome (MCHS) patient hiPSC-derived cerebrocortical neurons. (FIG. 5A) Representative traces of calcium events using fluo-4AM calcium-sensitive dye in hiPSC-derived neurons. […] (FIG. 5B) Quantification of calcium event frequency. Data represent mean±SEM. Sample size was 5 neurons imaged per coverslip in 3 coverslips. * P<0.05 by one-way ANOVA and Tukey post-hoc test.
(§1) In an embodiment, a compound for use in a method as described herein is AR-42 (Table 1).

[4] = test system: MEF2C haploinsufficient (MHCS) patient hiPSC-derived cerebrocortical neurons; test: MAP2 protein expression (immunoblot) in MCHS patient hiPSC-derived cerebrocortical neurons; type: cell-based, human; settings: MCHS neurons versus WT control, in vitro
Text: FIGS. 5A and 5B. […] (FIG. 4A) MAP2 protein expression in neurons treated with AR-42 and (n=3 in 2 independent experiments). (FIG. 4B) Representative immunoblot of MAP2 expression and GAPDH loading control. Data represented as mean±SEM. * P<0.05 by one-way ANOVA and Tukey post-hoc test.
Additionally, the neurons of patients with MEF2C haploinsufficiency syndrome (MCHS) display shorter neurites. The neuronal marker MAP2 was monitored as a biomarker for neurites in the MCHS hiPSC-derived neurons versus WT control: compromised levels of MAP2 were found, but they were corrected by treatment with AR-42 in vitro (FIGS. 6A and 6B). These types of assays correlate well with improvement in behavioral studies in this type of ASD/ID, as illustrated by the use mouse models of MCHS (S. Tu (2017)).

[5] = test system: MEF2 transcriptional activity; test: Confirmatory screen and Renilla counter-screen of MEF2 reporter activity; type: cell-based, human; settings: n=3
Text: FIG. 4. Dose-response for hits in the Renilla counterscreen. Dose response plots for AR-42, that had high EC50 and >3-fold increase in MEF2 activity in the primary screen. (n=3).
as §1

Compound	EC50 ([1]; Homo sapiens)	EC50 [1]	other results
Nc1c2ccccc2nc2ccccc12 [ACRISORCIN]	19.3 µM	–	PAMPA Pe (10^−6 cm s^−1) [2]: 6 10^−6 cm s^−1
CC(C)[C@H](C(=O)Nc1ccc(C(=O)NO)cc1)c1ccccc1 [AR-42]	0.439 µM	–	increase in MEF2 activity in the primary screen ([1]; primary screen, 10 μM): > 3 fold; aberrant hyperactivity (Ca^2+ signaling, calcium event frequency) [3]: normalizes this aberrant, excessive activity; also recorded: decreased aberrant hyperactivity; MAP2 levels (neurite biomarker) [4]: increase MAP2 levels; also recorded: corrected; MEF2 transcriptional activity corrected with control Renilla-based (non-specific) reporter [5]: increased MEF2 transcriptional activity
CNS(=O)(=O)Nc1nccc(Cc2c(C)c3ccc(Oc4ncccn4)cc3oc2=O)c1F [RO-5126766]	0.0391 µM	–	PAMPA Pe (10^−6 cm s^−1) [2]: 6 10^−6 cm s^−1
COc1cc2c(cc1O)C[C@H]1c3c(cc(O)c(OC)c3-2)CCN1C [boldine]	13.3 µM	–	–
Cc1c(OCC(F)(F)F)ccnc1C[S@@+]([O-])c1nc2ccccc2[nH]1 [dexlansoprazole]	–	> 19.9 µM	–
C[C@H](NC(=O)C(=O)Nc1ccccc1C(C)(C)C)C(=O)N[C@@H](CC(=O)O)C(=O)COc1c(F)c(F)cc(F)c1F [emricasan]	8.71 µM	–	–
Nc1ccccc1NC(=O)c1ccc(CNC(=O)OCc2cccnc2)cc1 [entinostat]	0.149 µM	–	–
CN(C)c1ccc2nc3ccc(N(C)C)cc3[s+]c2c1 [methylthioninium chloride]	–	3.77 µM	–
CC(C)(C)c1[nH]cnc1/C=c1\[nH]c(=O)/c(=C/c2ccccc2)[nH]c1=O [plinabulin]	–	2.67 µM	–
CCCCc1nc2cc(/C=C/C(=O)NO)ccc2n1CCN(CC)CC [pracinostat]	0.21 µM	–	–
O=C(CCCCCCC(=O)Nc1cccnc1)NO [pyroxamide]	> 19.9 µM	–	–
Cn1cc(CNCC2CCN(c3ncc(C(=O)NO)cn3)CC2)c2ccccc21 [quisinostat]	0.0907 µM	–	–
CN(C)Cc1ccc(S(=O)(=O)n2ccc(/C=C/C(=O)NO)c2)cc1 [resminostat]	–	1.23 µM	–
O=C(CCCCCCNC(=O)c1cnc(N(c2ccccc2)c2ccccc2)nc1)NO [ricolinostat]	–	2.79 µM	–
COc1cccc(-c2ccc(NC(=O)C3=C(C(=O)O)CCC3)c(F)c2)c1 [vidofludimus]	> 19.9 µM	–	–
Acriflavine	–	2.31 µM	–
CY-190602	–	2.41 µM	–
Chidamide	–	0.0367 µM	–
OXAMFLATIN	–	> 19.9 µM	–
XR 5944	–	4.52 µM	–
retapamulin	–	19.6 µM	–
